One block for each compound: values may come before it.
How the values were obtained:
[1] = ref Allen et al., 2000, Zhanel and Noreddin, 2001, cited from earlier work
LS-180 cells = assay: [14C] erythromycin uptake in treated LS-180 cells; assay type: cell-based, human; details: LS-180 cells treated 72hrs; gemifloxacin 2.5, 5, 7.5μM, rifampin 10μM
P-gp [2] = molecular target: T1, P-gp (Homo sapiens, UniProt P08183); assay: Cellular accumulation of calcein-AM in MDCKII-MDR1 cells; assay type: cell-based; details: calcein-AM 0.05μM, 15min, quinidine 100μM, gemifloxacin 250μM
MRP2 [3] = molecular target: T2, MRP2 (Homo sapiens, UniProt Q92887); assay: cell-based
MDCKII-MRP2 cells [4] = assay: ATP assay in MDCKII-MRP2 cells; assay type: cell-based, canine; details: 150min
MDCKII-MDR1 cells [5] = assay: Cell proliferative; assay type: cell-based, canine; details: 150min
P-gp [6] = molecular target: T1, P-gp; assay: cell-based
MDCKII-MRP2 cells [7] = assay: Cell proliferative; assay type: cell-based, canine; details: 150min
P-gp [8] = molecular target: T1, P-gp; details: MDCK-MDR1, 150 min
MDCKII-MDR1 cells [9] = assay: ATP assay in MDCKII-MDR1 cells; assay type: cell-based, canine; details: 150min
MRP2 [10] = molecular target: T2, MRP2; assay: in vitro
P-gp [11] = molecular target: T1, P-gp; assay: in vitro; details: MDCK-MDR1
[12] = all concentrations 1μM to 1000μM except 1000μM
[13] = gemifloxacin 1000μM, data not shown
[14] = all other concentrations (1μM to below 1000μM)

T1 sequence (P08183 whole entry): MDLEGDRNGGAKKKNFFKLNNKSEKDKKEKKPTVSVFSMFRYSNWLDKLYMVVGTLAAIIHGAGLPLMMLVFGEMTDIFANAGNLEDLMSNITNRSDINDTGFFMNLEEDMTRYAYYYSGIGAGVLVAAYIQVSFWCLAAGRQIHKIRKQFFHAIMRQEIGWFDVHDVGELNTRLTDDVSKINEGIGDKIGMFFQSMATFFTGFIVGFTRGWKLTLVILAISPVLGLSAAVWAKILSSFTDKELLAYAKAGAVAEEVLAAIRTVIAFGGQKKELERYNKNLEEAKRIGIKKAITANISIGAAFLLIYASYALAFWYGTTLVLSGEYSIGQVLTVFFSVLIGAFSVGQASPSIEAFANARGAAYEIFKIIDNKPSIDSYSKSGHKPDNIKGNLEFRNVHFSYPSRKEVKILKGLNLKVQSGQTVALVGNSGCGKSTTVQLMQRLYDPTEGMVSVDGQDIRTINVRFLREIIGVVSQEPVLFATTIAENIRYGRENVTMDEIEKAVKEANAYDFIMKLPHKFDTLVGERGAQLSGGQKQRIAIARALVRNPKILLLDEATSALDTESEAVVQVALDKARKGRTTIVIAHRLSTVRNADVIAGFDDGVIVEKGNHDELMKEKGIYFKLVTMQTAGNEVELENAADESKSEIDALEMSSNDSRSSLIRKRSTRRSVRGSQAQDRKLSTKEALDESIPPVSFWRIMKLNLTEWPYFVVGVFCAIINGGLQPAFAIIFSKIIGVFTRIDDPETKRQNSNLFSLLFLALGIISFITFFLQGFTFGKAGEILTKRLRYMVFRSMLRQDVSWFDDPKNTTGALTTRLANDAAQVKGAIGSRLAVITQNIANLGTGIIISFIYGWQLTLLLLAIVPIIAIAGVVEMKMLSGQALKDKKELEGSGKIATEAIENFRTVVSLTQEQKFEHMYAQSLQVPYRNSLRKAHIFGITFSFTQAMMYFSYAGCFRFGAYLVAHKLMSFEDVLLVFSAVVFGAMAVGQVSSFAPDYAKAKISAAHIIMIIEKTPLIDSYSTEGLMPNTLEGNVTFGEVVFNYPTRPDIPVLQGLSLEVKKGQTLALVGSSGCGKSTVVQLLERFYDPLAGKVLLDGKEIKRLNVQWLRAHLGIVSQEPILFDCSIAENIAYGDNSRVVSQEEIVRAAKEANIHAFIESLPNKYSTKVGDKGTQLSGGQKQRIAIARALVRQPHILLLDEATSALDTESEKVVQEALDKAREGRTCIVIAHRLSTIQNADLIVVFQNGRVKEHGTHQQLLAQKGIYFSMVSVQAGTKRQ
T2 sequence (Q92887 whole entry): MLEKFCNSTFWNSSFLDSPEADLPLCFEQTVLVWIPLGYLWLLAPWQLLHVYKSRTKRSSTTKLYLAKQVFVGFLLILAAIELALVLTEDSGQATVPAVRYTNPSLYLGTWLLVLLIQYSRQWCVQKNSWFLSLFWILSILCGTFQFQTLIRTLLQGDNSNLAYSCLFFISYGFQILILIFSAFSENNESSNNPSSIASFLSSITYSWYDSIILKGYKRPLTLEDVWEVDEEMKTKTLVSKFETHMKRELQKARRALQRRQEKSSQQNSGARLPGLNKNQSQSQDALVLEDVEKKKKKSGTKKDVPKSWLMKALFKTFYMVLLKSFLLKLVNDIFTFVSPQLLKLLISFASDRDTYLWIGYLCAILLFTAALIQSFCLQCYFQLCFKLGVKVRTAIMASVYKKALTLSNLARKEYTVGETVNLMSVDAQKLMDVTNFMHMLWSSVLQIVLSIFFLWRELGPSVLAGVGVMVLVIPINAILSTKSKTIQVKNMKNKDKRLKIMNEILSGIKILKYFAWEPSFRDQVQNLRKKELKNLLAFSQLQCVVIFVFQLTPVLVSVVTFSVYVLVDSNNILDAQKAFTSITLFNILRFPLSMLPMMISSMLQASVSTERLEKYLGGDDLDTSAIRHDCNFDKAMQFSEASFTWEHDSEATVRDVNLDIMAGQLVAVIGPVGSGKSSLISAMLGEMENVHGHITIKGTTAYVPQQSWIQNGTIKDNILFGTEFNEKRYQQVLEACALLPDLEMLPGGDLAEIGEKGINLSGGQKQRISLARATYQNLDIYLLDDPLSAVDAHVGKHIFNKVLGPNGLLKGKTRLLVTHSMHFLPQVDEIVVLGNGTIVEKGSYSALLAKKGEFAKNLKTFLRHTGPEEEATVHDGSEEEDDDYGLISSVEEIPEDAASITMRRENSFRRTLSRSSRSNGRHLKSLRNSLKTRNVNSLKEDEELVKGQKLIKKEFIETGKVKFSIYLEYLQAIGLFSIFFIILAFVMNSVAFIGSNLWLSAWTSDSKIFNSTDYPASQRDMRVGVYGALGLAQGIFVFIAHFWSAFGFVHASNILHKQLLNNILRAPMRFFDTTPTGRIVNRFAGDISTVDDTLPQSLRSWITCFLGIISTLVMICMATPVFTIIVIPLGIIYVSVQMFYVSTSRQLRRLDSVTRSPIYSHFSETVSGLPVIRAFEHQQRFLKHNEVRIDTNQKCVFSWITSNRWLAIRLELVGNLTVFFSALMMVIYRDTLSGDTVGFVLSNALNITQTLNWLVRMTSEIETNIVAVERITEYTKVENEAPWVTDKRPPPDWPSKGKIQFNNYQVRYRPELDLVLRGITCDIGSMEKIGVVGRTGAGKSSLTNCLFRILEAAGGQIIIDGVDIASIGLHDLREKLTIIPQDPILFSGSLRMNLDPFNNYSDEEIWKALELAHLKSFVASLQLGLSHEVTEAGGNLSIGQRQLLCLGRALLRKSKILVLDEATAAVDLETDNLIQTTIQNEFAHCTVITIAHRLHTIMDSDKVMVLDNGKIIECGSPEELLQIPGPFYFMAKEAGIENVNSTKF

Compound: COc1c(N2CCNC(C)C2)c(F)cc2c(=O)c(C(=O)O)cn(C3CC3)c12 (stereo not drawn) [gatifloxacin]
Absolute (oral) bioavailability [1]: 96%

Compound: CO[C@H]1/C=C/O[C@@]2(C)Oc3c(C)c(O)c4c(O)c(c(/C=N/N5CCN(C)CC5)c(O)c4c3C2=O)NC(=O)/C(C)=C\C=C\[C@H](C)[C@H](O)[C@@H](C)[C@@H](O)[C@@H](C)[C@H](OC(C)=O)[C@@H]1C [rifampin]
Decrease in cellular accumulation of [14C] erythromycin post treatment (LS-180 cells): ~20%

Compound: CC[C@H]1OC(=O)[C@H](C)[C@@H](O[C@H]2C[C@@](C)(OC)[C@@H](O)[C@H](C)O2)[C@H](C)[C@@H](O[C@@H]2O[C@H](C)C[C@H](N(C)C)[C@H]2O)[C@](C)(O)C[C@@H](C)C(=O)[C@H](C)[C@@H](O)[C@]1(C)O [[^14C] erythromycin, erythromycin]
Papp A→B at 150 min (MRP2 [10]): 3.76 ± 1.37 ×10⁻⁶ cm/s
Papp B→A at 150 min (MRP2 [10]): 18.5 ± 1.94 ×10⁻⁶ cm/s
efflux ratio at 150 min (MRP2 [10]): 4.93
Papp A→B at 150 min (P-gp [11]): 2.96 ± 0.37 ×10⁻⁶ cm/s
Papp B→A at 150 min (P-gp [11]): 10.6 ± 0.86 ×10⁻⁶ cm/s
efflux ratio at 150 min (P-gp [11]): 3.56

The next lines start with results.

Increase in intracellular calcein fluorescence (P-gp [2]): doubled
Compound: C=C[C@H]1C[N@@]2CC[C@H]1C[C@@H]2[C@@H](O)c1ccnc2ccc(OC)cc12 [quinidine]

IC50 (MRP2 [3]): 16 ± 2 µM
IC50 (P-gp [6]): 123 ± 2 µM
Apparent permeability of [14C] erythromycin, AP-BL, in presence of test compound (P-gp [8]): 5.24 ± 0.52 × 10-6 cm/sec
Apparent permeability of [14C] erythromycin, BL-AP, in presence of test compound (P-gp [8]): 7.38 ± 0.72 × 10-6 cm/sec
Compound: CO/N=C1\CN(c2nc3c(cc2F)c(=O)c(C(=O)O)cn3C2CC2)CC1CN (stereo not drawn) [gemifloxacin]
Effect on ATP levels compared to control (MDCKII-MRP2 cells [4]; [12]): did not significantly alter ATP levels
Increase in ATP level (MDCKII-MRP2 cells [4]; [13]): ~10%
Cytotoxicity (MTS) (MDCKII-MDR1 cells [5]; [14]): non-cytotoxic
Decrease in cell viability (MTS) (MDCKII-MDR1 cells [5]; [13]): ~25%
Time to peak concentration ([1]; oral administration): 0.5 to 2 h
Absolute (oral) bioavailability [1]: 71%
Cytotoxicity (MTS) (MDCKII-MRP2 cells [7]; [14]): non-cytotoxic
Decrease in cell viability (MTS) (MDCKII-MRP2 cells [7]; [13]): ~20%
Effect on ATP levels compared to control (MDCKII-MDR1 cells [9]; [12]): did not significantly alter ATP levels
Increase in ATP level (MDCKII-MDR1 cells [9]; [13]): ~15%
Decrease in cellular accumulation of [14C] erythromycin post treatment (LS-180 cells): ~20%

From paper PMC3195835 (International journal of pharmaceutics, 2011)
